Data set [1] relates to HCC461 human NSCLC xenograft. The data set can be described thus: HCC461 human NSCLC xenograft tumor model in mice. The class given is in vivo. The following applies: FIG. 1; 20 mg/kg per dose; injections at days 7, 9, 11, 14, 16 and 18 post tumor cell injection. The procedure:
Compound 22 (prepared according to Example 22) and Compound 28 (prepared according to Example 28) were tested in a HCC461 human NSCLC xenograft tumor model in mice.
Preparation of Tumor Cells • 1. Hcc461 cells were cultured in complete RPMI medium and excluded any contamination • 2. When cells are 70-80% confluent, medium was removed and cells were washed with serum free media, trypsinized, harvested and washed with serum free media for three times by centrifuge. After final washing, cells were counted and mixed with matrigel at 1:1 ration in volume. Cells were suspended in a volume that 200 PI contains required number of cells per injection.
Preparation of Mice • 1. Mice should be 4-6 weeks old. • 2. Allow 3-5 days acclimatization period after mice have arrived.
Preparation of the Injection • 1. Clean and sterilize the inoculation area of the mice with iodine solutions and ethanol. • 2. Take cells with 1-cc syringe. • 3. Inject cells (1×10^7) with 27 gauge needles subcutaneously (s.c.) into the lower flank of the mice. • 4. Therapy was started after 1 week when the tumors have reached an average volume of ˜250 mm^3. • 5. Tumor diameters are measured with digital calipers, and the tumor volume in mm^3 is calculated by the formula: Volume=(width)^2×length/2
Treatment • 1. Compound 22 and Compound 28 were dissolved in water at concentration of 5 mg/ml and diluted to working solution with D5W before injection. Compound 16 was administered at 20 mg/kg in a mixture of 5% ethanol-5% cremaphor-90% saline. • 2. Each tumor bearing mouse was injected with Compound 22 at 20 mg/kg, Compound 28 at 20 mg/kg or at 10 mg/kg, or Compound 16 at 20 mg/kg via tail vein and continually injected with the same method for a total of 6 times, on days 7, 9, 11, 14, 16, and 18 post tumor-cell injection.
On the technique in general: A xenograft is tissue or cells of one species grown in another, often human tumour cells in immunodeficient mice.

Data set [2] in a line: aqueous solubility in de-ionized water. As to conditions: for solubility: thermodynamic from solid. The class given is physicochemical. The procedure:
Unless otherwise indicated, the solubility measurements described herein are determined by dissolving the test compound in de-ionized (DI) water at 25° C. […] In particular, the compounds provided by Examples 22, 23, 28, 30, 31, 37 and 38 are water soluble.

A short description of data set [3]: stability of aqueous solution at room temperature. Type of data set: physicochemical. The procedure: To the combined filtration above was added a stock solution of NaOH in water (14.4 mg/mL, 1 mL, 0.360 mmol). The resulting solution was concentrated to remove most of MeOH at room temperature. Then the residue was diluted with DI water (100 mL). This solution was filtered through a syringe filter (0.45 um) to remove tiny particles. The filtrate was lyophilized to afford the desired compound monosodium salt, 31 (285 mg, 97% yield for two steps).

Data set [4] has as its system microtubule assembly. As to conditions: Cruz-Monserrate et al., Mol. Pharmacol., 2003; cited from earlier work.
The test system of data set [5] is HCT-116 cells. The following applies: a human colorectal carcinoma line; cited from earlier work.
[6] abbreviates: de-ionized (DI) water at 25° C., read-out: water solubility.

SMILES strings stand for the structures. Where two headings read alike, the source gives them in different places.

As for `CC(C)C1NC(=O)[C@@H](NC(=O)[C@@H](O)C(C)C)Cc2ccc3c(c2)C24C5=C(N=C1O5)c1ncc(o1)-c1c[nH]c5cccc(c15)-c1cccc2c1N[C@H]4O3` (stereo partly drawn) [Compound 16], the tumor free animals result in data set [1] is “no tumor free animals”.

Usually solubility stands for the concentration that dissolves in the medium under given conditions. As for `CC(C)[C@@H]1NC(=O)[C@@H](NC(=O)[C@@H](OP(=O)(O)O)C(C)C)Cc2ccc3c(c2)[C@]24C5=C(N=C1O5)c1ncc(o1)-c1c[nH]c5cccc(c15)-c1cccc2c1NC4O3` (stereo partly drawn) [Compound 22], the solubility in data set [2] (setting [6]) is more than 1000 µg/mL. Also, in data set [1], the tumor free animals result is reported as “no tumor free animals” and the “weight loss in the treated group” value is reported as “No weight loss”.

On to `CC(C)[C@@H]1NC(=O)[C@@H](NC(=O)[C@@H](OP(=O)([O-])O)C(C)C)Cc2ccc3c(c2)[C@]24C5=C(N=C1O5)c1ncc(o1)-c1c[nH]c5cccc(c15)-c1cccc2c1NC4O3.[Na+]` (stereo partly drawn) [Compound 23], for which the “amount shown to dissolve in 1 mL of de-ionized water” value in data set [2] (1 mL of de-ionized water) is recorded as 5 mg. Also, the solubility in data set [2] (setting [6]) is more than 1000 µg/mL.

For `CC(C)[C@H](O)C(=O)N[C@H]1Cc2ccc3c(c2)[C@]24C5=C(N=C(O5)[C@H](C(C)C)NC1=O)c1ncc(o1)-c1cn(P(=O)(O)O)c5cccc(c15)-c1cccc2c1NC4O3` (stereo partly drawn) [Compound 28], in data set [2] (setting [6]), the solubility is more than 1000 µg/mL.

Regarding `CCC(O)(CC)C(=O)N[C@H]1Cc2ccc3c(c2)[C@]24C5=C(N=C(O5)[C@H](C(C)C)NC1=O)c1ncc(o1)-c1cn(P(=O)(O)O)c5cccc(c15)-c1cccc2c1NC4O3` (stereo partly drawn) [Compound 30], in data set [2] (setting [6]), the solubility was more than 1000 µg/mL.

Take `CCC(O)(CC)C(=O)N[C@H]1Cc2ccc3c(c2)[C@]24C5=C(N=C(O5)[C@H](C(C)C)NC1=O)c1ncc(o1)-c1cn(P(=O)([O-])O)c5cccc(c15)-c1cccc2c1NC4O3.[Na+]` (stereo partly drawn) [Compound 31]: in data set [3], the “time for which the aqueous solution is stable” value is “more than 48 hours”. The solubility was more than 1000 µg/mL in data set [2] (setting [6]) and 20000 µg/mL in data set [2] (water, 25 °C, water, read-out: solubility in water).

On to `CCC(O)(CC)C(=O)N[C@H]1Cc2ccc3c(c2)C24C5=C(N=C(O5)[C@H](C(C)C)NC1=O)c1ncc(o1)-c1c[nH]c5c(OP(=O)(O)O)ccc(c15)-c1cccc2c1NC4O3` (stereo partly drawn) [Compound 37], for which the solubility in data set [2] (setting [6]) was more than 1000 µg/mL.

For the compound `CCC(O)(CC)C(=O)N[C@H]1Cc2ccc3c(c2)C24C5=C(N=C(O5)[C@H](C(C)C)NC1=O)c1ncc(o1)-c1c[nH]c5c(OP(=O)([O-])[O-])ccc(c15)-c1cccc2c1NC4O3.[Na+].[Na+]` (stereo partly drawn) [Compound 38], the solubility in data set [2] (setting [6]) was more than 1000 µg/mL.

`CC(C)[C@H](O)C(=O)NC1Cc2ccc3c(c2)[C@]24C5=C(N=C(O5)[C@H](C(C)C)NC1=O)c1nc(Cl)c(o1)-c1c(Cl)[nH]c5cccc(c15)-c1cccc2c1NC4O3` (stereo partly drawn) [Diazonamide A]: the “inhibition of microtubule assembly” value in data set [4] was “inhibit microtubule assembly”. Also, in data set [5], the “GI50 values (50% growth inhibitory concentration)” value is recorded as “less than 15 ng/ml”.

The record behind these values is patent US7960420B2, “Diazonamide analogs with improved solubility” (Joyant Pharmaceuticals, Inc, priority 2007, dated 2011).
